By EC50 is commonly meant the midpoint of the concentration-response curve. A high value points to lower potency in that assay.

For this experiment, the target named is AMPK. Put plainly: AMPK activation, enzyme-linked immunosorbent assay. The settings on record: ELISA. How it is done: Compounds 1-8 were assayed for their ability to activate AMPK using an enzyme-linked immunosorbent assay.

`N#Cc1ccc(CN2CCC(NC(=O)c3ccc(C(=O)N4CCN(Cc5ccc(F)cc5)CC4)cn3)CC2)cc1` [Compound 2, N-(1-(4-cyanobenzyl)piperidin-4-yl)-5-(4-(4-fluorobenzyl)piperazine-1-carbonyl)picolinamide] showed an EC50 below 500 nM. Then `N#Cc1ccc(CN2CCC(NC(=O)c3ccc(C(=O)N4CCN(Cc5ccc(C(F)(F)F)cc5)CC4)cn3)CC2)cc1` [Compound 3, N-(1-(4-cyanobenzyl)piperidin-4-yl)-5-(4-(4-(trifluoromethyl)benzyl)piperazine-1-carbonyl)picolinamide], with below 500 nM.

For `N#Cc1ccc(CN2CC[C@H](NC(=O)c3ccc(C(=O)N4CCN(c5ccc(Cl)cc5)CC4)cn3)C2)cc1` [Compound 6, (S)-5-(4-(4-chlorophenyl)piperazine-1-carbonyl)-N-(1-(4-cyanobenzyl)pyrrolidin-3-yl)picolinamide], the EC50 is 500 to 1000 nM. Then `O=C(NC1CCN(Cc2ccc(C(F)(F)F)cc2)C1)c1ccc(C(=O)N2CCN(c3ccc(Cl)cc3)CC2)cn1` (stereo not shown) [Compound 8, 5-(4-(4-chlorophenyl)piperazine-1-carbonyl)-N-(1-(4-(trifluoromethyl)benzyl)pyrrolidin-3-yl)picolinamide], with 1000 to 5000 nM.

Source of the values: patent US8362235B2, “Carboxamide compounds and methods for using the same” (Rigel Pharmaceuticals, Inc., priority 2009, dated 2013).
